Reference: patent publication US9902739B2, “Small molecule inhibitors of G protein coupled receptor 6 kinases polypeptides” (Mayo Foundation for Medical Education and Research, priority 2014, dated 2018)

Each compound was assayed against T1, GRK6, recombinant full-length GST-tagged human protein (Homo sapiens, UniProt P43250) (assay: GRK6 assay, IC50 determination (8-point concentration-response)). Conditions: Series 1 (Table 11); 20 nM GRK6, ATP 12 μM (Km), Peptide 216 1 μM, incubation 7 h.
T1 construct: Enzyme: 20 nM GRK6, recombinant full-length GST-tagged human protein; GST
T1 sequence (P43250 whole entry): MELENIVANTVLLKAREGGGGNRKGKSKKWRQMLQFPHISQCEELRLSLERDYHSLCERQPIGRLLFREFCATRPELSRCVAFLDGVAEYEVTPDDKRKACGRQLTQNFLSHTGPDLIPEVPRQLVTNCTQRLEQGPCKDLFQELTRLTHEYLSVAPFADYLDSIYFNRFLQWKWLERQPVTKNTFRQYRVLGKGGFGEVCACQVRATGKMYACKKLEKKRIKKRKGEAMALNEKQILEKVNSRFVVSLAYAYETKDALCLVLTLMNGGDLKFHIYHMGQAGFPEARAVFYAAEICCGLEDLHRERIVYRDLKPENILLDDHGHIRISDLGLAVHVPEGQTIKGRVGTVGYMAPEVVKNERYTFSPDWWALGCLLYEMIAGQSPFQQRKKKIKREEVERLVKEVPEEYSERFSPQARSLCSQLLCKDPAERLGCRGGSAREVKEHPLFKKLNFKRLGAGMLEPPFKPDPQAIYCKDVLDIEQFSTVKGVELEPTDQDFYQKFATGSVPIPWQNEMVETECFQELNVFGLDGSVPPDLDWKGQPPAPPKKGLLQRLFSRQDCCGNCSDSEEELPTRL
Type: biochemical
Description: The following assay conditions were used.
Buffer: 50 mM TRIS-HCl, pH 7.5, 5 mM MgCl2, 2 mM DTT, 0.01% Triton X-100, 10 μM Na3VO4, 10 μM b-GP, 1% DMSO
Enzyme: 20 nM GRK6, recombinant full-length GST-tagged human protein
Peptide substrate (Peptide 216): 1 μM
One hundred two compounds (1-1-1-102) were further characterized by determining IC50 values in a GRK6 assay. This screen has been previously described in WO 2013/063458, which is incorporated by reference in its entirety herein. Briefly, the following activities were performed: 8-point concentration-response determinations in singlicate wells (top concentration=60 μM, 3-fold dilution steps); Repeat tests for QC failed or inconclusive compounds; and Repeat tests (titrate down) for compounds with >50% inhibition at all tested concentrations.
Twelve compounds (2-1-2-12) were further characterized by determining the IC50 values in a GRK6 assay. This screen has been previously described in WO 2013/063458, which is incorporated by reference in its entirety herein. Specific activities were performed as described above (Example 18).
Thirty-six compounds (3-1-3-36) were further characterized by determining the IC50 values in a GRK6 assay. This screen has been previously described in WO 2013/063458, which is incorporated by reference in its entirety herein. Specific activities were performed as described above (Example 18).
Fifty-four compounds (4-1-4-54) were further characterized by determining the IC50 values in a GRK6 assay. This screen has been previously described in WO 2013/063458, which is incorporated by reference in its entirety herein. Specific activities were performed as described above (Example 18).

SMILES	IC50 [µM]
CO/N=C/c1cc(-c2ccc(-c3nnc(SCC(=O)O)[nH]3)o2)ccc1OC [Compound 1-71]	0.875
O=C(O)CSc1nnc(-c2ccc(-c3ccc4c(c3)CCC(=O)N4)o2)[nH]1 [Compound 1-72]	0.987
O=C(O)CSc1nnc(-c2ccc(-c3ccccc3)o2)[nH]1 [Compound 1-73]	0.996
CCOC(=O)c1ccc(-c2ccc(-c3nnc(SCC(=O)O)[nH]3)o2)cc1 [Compound 1-74]	1.02
O=C(O)CSc1nnc(-c2ccc(-c3ccc(C(=O)NC4CC4)cc3)o2)[nH]1 [Compound 1-75]	1.05
O=C(O)CSc1nnc(-c2ccc(-c3ccc(Cl)s3)o2)[nH]1 [Compound 1-76, 2-((5-(5-(5-chlorothiophen-2-yl)furan-2-yl)-4H-1,2,4-triazol-3-yl)thio)acetic acid]	1.12
COc1ccc2cc(-c3oc(-c4nnc(SCC(=O)O)[nH]4)cc3-c3ccccc3)ccc2c1 [Compound 1-77]	1.15
CC(C)CCn1ccc(-c2ccc(-c3nnc(SCC(=O)O)[nH]3)o2)n1 [Compound 1-78]	1.17
O=C(O)CSc1nnc(-c2ccc(-c3ccc4nccnc4c3)o2)[nH]1 [Compound 1-79]	1.17
O=C(O)CSc1nnc(-c2ccc(-c3ccc[nH]3)o2)[nH]1 [Compound 1-80]	1.21
COc1ccc(-c2ccc(-c3nnc(SCC(=O)O)[nH]3)o2)cc1 [Compound 1-81]	1.21
O=C(O)CSc1nnc(-c2ccc(-c3ccc([N+](=O)[O-])cc3)o2)[nH]1 [Compound 1-82]	1.31
Nc1cccc(-c2ccc(-c3nnc(SCC(=O)O)[nH]3)o2)c1 [Compound 1-83]	1.41
O=C(O)CSc1nnc(-c2ccc(-c3cccc(OCc4ccc(OC(F)(F)F)c(Cl)c4)c3)o2)[nH]1 [Compound 1-84]	1.44
O=C(O)CSc1nnc(-c2ccc(-c3ccccc3Cl)o2)[nH]1 [Compound 1-85]	1.44
O=C(O)CSc1nnc(-c2cc3ccccc3o2)[nH]1 [Compound 1-86]	1.57

SMILES	IC50 [µM]
Cn1ccc2c(-c3ccc(-c4nnc(SCC(=O)O)[nH]4)o3)cccc21 [Compound 1-87]	1.8
COc1ccc(-c2ccc(-c3nnc(SCC(=O)O)[nH]3)o2)cn1 [Compound 1-88]	1.82
O=C(O)CSc1nnc(-c2ccc(Cn3c4ccccc4c4ccccc43)o2)[nH]1 [Compound 1-89]	2.02
O=C(O)CSc1nnc(-c2ccc(-c3ccc(C(F)(F)F)nc3)o2)[nH]1 [Compound 1-90]	2.04
O=C(O)CSc1nnc(-c2ccc(-c3ccc(Cl)nc3)o2)[nH]1 [Compound 1-91]	2.09
Nc1cc(-c2ccc(-c3nnc(SCC(=O)O)[nH]3)o2)ccn1 [Compound 1-92, 2-((5-(5-(2-aminopyridin-4-yl)furan-2-yl)-4H-1,2,4-triazol-3-yl)thio)acetic acid]	2.17
C#Cc1ccc(-c2nnc(SCC(=O)O)[nH]2)o1 [Compound 1-93]	2.3
O=C(O)CSc1nnc(-c2ccc(-c3ccccc3C(F)(F)F)o2)[nH]1 [Compound 1-94]	3.1
O=C(O)CSc1nnc(-c2ccc(-c3ccccc3[N+](=O)[O-])o2)[nH]1 [Compound 1-95]	3.18
Cc1nn(C)cc1-c1ccc(-c2nnc(SCC(=O)O)[nH]2)o1 [Compound 1-96]	3.31
O=C(O)CSc1nnc(-c2ccc(Br)o2)[nH]1 [Compound 1-97]	3.33
Cn1cc(-c2ccc(-c3nnc(SCC(=O)O)[nH]3)o2)cn1 [Compound 1-98]	3.68
Cc1n[nH]c(C)c1-c1ccc(-c2nnc(SCC(=O)O)[nH]2)o1 [Compound 1-99]	4.37
O=C(O)CSc1nnc(-c2ccc(-c3cnn(CCN4CCOCC4)c3)o2)[nH]1 [Compound 1-100]	6.2
O=C(O)CSc1nnc(-c2ccc(C(c3ccccc3)c3ccccc3)o2)[nH]1 [Compound 1-101]	6.71
COC(=O)CSc1nnc(-c2ccc(C#Cc3ccc4ccccc4c3)o2)[nH]1 [Compound 1-102]	8.25

Same assay, conditions: Series 2 (Table 12); conditions as Example 18

SMILES	IC50 [µM]
COc1cc(Cl)cc(-c2ccc(-c3cc(SCC(=O)O)n[nH]3)o2)c1 [Compound 2-1]	0.309
O=C(O)CSc1cc(-c2ccc(-c3ccc(Cl)c(Cl)c3)s2)[nH]n1 [Compound 2-2]	0.402
O=C(O)CSc1cc(-c2ccc(-c3ccc(Cl)c(Cl)c3)o2)[nH]n1 [Compound 2-3]	0.475
COc1cc(Cl)cc(-c2ccc(-c3cc(SCC(=O)O)n[nH]3)s2)c1 [Compound 2-4]	0.608
COc1ccc2cc(C#Cc3ccc(-c4cc(SCC(=O)O)n[nH]4)o3)ccc2c1 [Compound 2-5]	0.626
COc1ccc2cc(-c3ccc(-c4cc(SCC(=O)O)n[nH]4)s3)ccc2c1 [Compound 2-6]	0.721
O=C(O)CSc1cc(-c2ccc(-c3ccc4ccccc4c3)s2)[nH]n1 [Compound 2-7]	0.788
Cn1c2ccccc2c2ccc(-c3ccc(-c4cc(SCC(=O)O)n[nH]4)o3)cc21 [Compound 2-8]	1.25
O=C(O)CSc1cc(-c2ccc(-c3ccc4c(c3)[nH]c3ccccc34)o2)[nH]n1 [Compound 2-9]	1.29
COc1ccc2cc(-c3cc(SCC(=O)O)n[nH]3)ccc2c1 [Compound 2-10]	1.47
O=C(O)CSc1cc(-c2ccc(Br)o2)[nH]n1 [Compound 2-11]	5.44
O=C(O)CSc1cc(-c2ccccc2)[nH]n1 [Compound 2-12, 2-[(5-phenyl-1H-pyrazol-3-yl)sulfanyl]acetic acid]	18.3

Same assay, conditions: Series 3 (Table 13); conditions as Example 18

SMILES	IC50 [µM]
c1ccc2cc(-c3ccc(-c4nnc(SCc5nnn[nH]5)[nH]4)o3)ccc2c1 [Compound 3-1]	0.442
Clc1cc(Cl)cc(-c2ccc(-c3nnc(SCc4nnn[nH]4)[nH]3)o2)c1 [Compound 3-2]	0.545
c1cnc2ccc(-c3ccc(-c4nnc(SCc5nnn[nH]5)[nH]4)o3)cc2c1 [Compound 3-3]	0.667
FC(F)(F)c1cc(-c2ccc(-c3nnc(SCc4nnn[nH]4)[nH]3)o2)cc2cccnc12 [Compound 3-4]	0.881
c1ccc(-c2cccc(-c3ccc(-c4nnc(SCc5nnn[nH]5)[nH]4)o3)c2)cc1 [Compound 3-5]	0.9
c1ccc2ncc(-c3ccc(-c4nnc(SCc5nnn[nH]5)[nH]4)o3)cc2c1 [Compound 3-6]	1.1
COc1cc(Cl)cc(-c2cc(-c3nnc(SCc4nnn[nH]4)[nH]3)cc([N+](=O)[O-])c2)c1 [Compound 3-7]	1.21
c1cc2cc(-c3ccc(-c4nnc(SCc5nnn[nH]5)[nH]4)o3)ccc2[nH]1 [Compound 3-8]	1.27
COc1ccc(C(F)(F)F)cc1-c1ccc(-c2nnc(SCc3nnn[nH]3)[nH]2)o1 [Compound 3-9]	1.28
O=c1[nH]c2ccc(-c3ccc(-c4nnc(SCc5nnn[nH]5)[nH]4)o3)cc2[nH]1 [Compound 3-10]	1.51
COc1ccc2cc(-c3ccc(-c4nnc(SCc5nnn[nH]5)[nH]4)o3)ccc2c1 [Compound 3-11]	1.53
c1cc2ccc(-c3ccc(-c4nnc(SCc5nnn[nH]5)[nH]4)o3)cc2[nH]1 [Compound 3-12]	1.58
COc1cc(-c2ccc(-c3nnc(SCc4nnn[nH]4)[nH]3)o2)cc(C(F)(F)F)c1 [Compound 3-13]	2.16
c1cnc2c(-c3ccc(-c4nnc(SCc5nnn[nH]5)[nH]4)o3)cccc2c1 [Compound 3-14]	2.34
CC(=O)c1cccc(-c2ccc(-c3nnc(SCc4nnn[nH]4)[nH]3)o2)c1 [Compound 3-15]	2.48
FC(F)(F)c1cccc(-c2ccc(-c3nnc(SCc4nnn[nH]4)[nH]3)o2)c1 [Compound 3-16]	2.55
COc1cc(F)cc(-c2ccc(-c3nnc(SCc4nnn[nH]4)[nH]3)o2)c1 [Compound 3-17]	2.86
Fc1cc(F)cc(-c2ccc(-c3nnc(SCc4nnn[nH]4)[nH]3)o2)c1 [Compound 3-18]	3.31
FC(F)(F)c1cc(-c2ccc(-c3nnc(SCc4nnn[nH]4)[nH]3)o2)ccc1Cl [Compound 3-19]	3.57
N#Cc1cccc(-c2ccc(-c3nnc(SCc4nnn[nH]4)[nH]3)o2)c1 [Compound 3-20]	3.62
CS(=O)(=O)Nc1ccc(-c2ccc(-c3nnc(SCc4nnn[nH]4)[nH]3)o2)cc1 [Compound 3-21]	3.71
CNS(=O)(=O)c1ccc(-c2ccc(-c3nnc(SCc4nnn[nH]4)[nH]3)o2)cc1 [Compound 3-22]	3.78
CC(=O)Nc1cccc(-c2ccc(-c3nnc(SCc4nnn[nH]4)[nH]3)o2)c1 [Compound 3-23]	3.81
Fc1cc(-c2ccc(-c3nnc(SCc4nnn[nH]4)[nH]3)o2)cc(F)c1F [Compound 3-24]	3.83
CS(=O)(=O)Nc1cccc(-c2ccc(-c3nnc(SCc4nnn[nH]4)[nH]3)o2)c1 [Compound 3-25]	4.66
Fc1cccc(-c2ccc(-c3nnc(SCc4nnn[nH]4)[nH]3)o2)c1F [Compound 3-26]	5.52
Fc1cccc(-c2ccc(-c3nnc(SCc4nnn[nH]4)[nH]3)o2)c1 [Compound 3-27]	5.63
